These results are taken from patent US9580487B2, “Method of treating stomach or bowel-related disorders by administering glucagon-like-peptide-2 (GLP-2) analogues” (Zealand Pharma A/S, priority 2005, dated 2017).

“Also recorded” adds a separate entry of the source. No end group written: not given here.

The subject of experiment [1] is Sprague-Dawley rats treated with 5-Fluorouracil (5-FU). The experiment is described as follows: 5-FU-induced small intestinal atrophy and diarrhea in SD rats. It is filed as in vivo. Here is the method:
FIG. 10 is a set of graphs showing effects of compound 1846 (SEQ ID NO:34) (16, 80 and 400 nmol/kg/d; s.c., n=6/dose group) in male Spague-Dawley rats treated with the cytostatic drug 5-Fluorouracil (5-FU). Compound 1846 (SEQ ID NO:34) was administered for 3 days prior to and for 4 days together with 5-FU (75 mg/kg, i.p. daily). Results were compared with responses in control animals treated with vehicle (saline) or 5-FU alone. Saline and 5-FU controls are also shown. […] Values are means±SEM. * P<0.05, relative to 5-FU alone.
FIG. 11 is a set of graphs showing the therapeutic effect of compound 1846 (SEQ ID NO:34) on diarrhea induced by treatment with the cytostatic drug 5-fluorouracil (5-FU). Rats were treated with 5-FU for 4 days with 75 mg/kg once daily (days 1-4); (n=40 rats). Half of the animals received additional treatment with compound 1846 (SEQ ID NO:34) (400 nmol/kg s.c. once daily) during the last 3 days prior to (days −3 to −1) and during 4 days of 5-FU treatment (days 0 to 3). Rats were observed twice daily (morning and evening) to determine whether the animal had diarrhea and the severity of the diarrhea was scored according to this scale: (0) no diarrhea; (1) mild—fecal staining around the anus; (2) moderate—fecal staining on the hind limbs and tail; and (3) severe—fecal staining on the front limbs and abdomen. On day 5, about 70% of Sprague Dawley rats that received 5-FU alone had developed diarrhea (FIG. 11A) while only 30% of the rats that were co-treated with compound 1846 (SEQ ID NO:34) developed diarrhea (FIG. 11B).
The effect of the clinical candidate, 1846 (SEQ ID NO:34), on 5-FU-induced small intestinal atrophy and diarrhea was investigated in SD rats. We have previously shown that i.p. administration of 75 mg/kg 5-FU once daily for four days induces significant small intestinal atrophy and diarrhea in SD rats. 1846 (SEQ ID NO:34) (16, 80 and 400 nmol/kg/d; […]) was administered twice daily for three days prior to 5-FU and for four days together with 5-FU administration. 5-FU controls and PBS controls were included in the study. […]

In experiment [2] the test system is TNF-α. The experiment is described as follows: Small intestinal tissue content of TNF-α (ELISA) in rats with indomethacin-induced inflammation. Particulars: for Tissue levels of TNF-α, proximal segment: indomethacin alone 97±14, control 34±7. It is filed as in vivo. Here is the method: Male Sprague Dawley rats were treated with vehicle (saline; group 1) or indomethacin (7 mg/kg s.c., once daily for two days; groups 2-7). […] On day 3, rats were sacrificed and upon necropsy, the small intestine was divided into three segments of equal length corresponding to 1) duodenum and proximal jejunum, 2) mid and distal jejunum and 3) ileum. Samples were immediately snap-frozen in liquid N2 and stored at −80° C. until analysis. Homogenization and extraction of cellular protein from small intestinal segments was performed according to the following procedure: Tissue segments were weighed and added a volume of 1.5 ml per gram tissue ice-cold (4° C.) extraction buffer (10 mM Tris-HCl (Sigma) and 1 mM EDTA (J. T. Baker), (pH 7.6) with 0.05% sodium azide (Fluka), 1% Tween-80 (Fluka), 2 mM phenylmethylsulfonyl fluoride (PMSF, Fluka) and 1 μg/ml of each of the protease inhibitors aprotinin, leupeptin and pepstatin A (Roche Diagnostics)). The tissue was cut into small bits with a pair of scissors and homogenized three times for 20 seconds (IKA UltraTurrax T25 homogenizer, Janke & Kunkel) at 9500 rpm with intermittent cooling on ice for 30 seconds. The homogenate was centrifuged at 20.000×g for 30 minutes at 4° C., the supernatant was collected and stored at −20° C. until analysis for TNF-α small intestinal protein extractions were analyzed for TNF-α using a commercially available ELISA kit according to the manufacturer's instructions (Rat Tumor Necrosis Factor-α UltraSensitive ELISA kit, Biosource International Inc.). The assay has a detection limit of 0.7 pg/ml. Protein extractions were analyzed for total protein content using a commercially available assay (DC protein assay, Bio-Rad Laboratories Ltd.). Small intestinal tissue levels of TNF-α were expressed relative to total protein. […] Values are means±SEM. * P<0.05 vs. indomethacin (group 2).
At sacrifice, however the small intestine was separated into three segments of equal length (proximal, mid and distal). TNF-α concentrations were measured in each of the individual segments using a commercially available ELISA kit.
A general note: In an ELISA, binding on a coated surface is turned into a signal by an enzyme label.

For the substance “[Gly2, Glu3, Ser8,11, Leu10, Ala16,24,28]hGLP-2(1-33)-(Lys)6-NH2 (HGEGSFSSELSTILDALAARDFIAWLIATKITDKKKKKK-NH2) [Compound 1846]”, in experiment [1] (400 nmol/kg s.c. with 5-FU 75 mg/kg, 5-FU alone about 70%), the “Rats that developed diarrhea on day 5” value was 30%. Also, the “5-FU-induced small intestinal atrophy (SI-BW, SI length) in rats” value in experiment [1] (16, 80 and 400 nmol/kg/d s.c., 3 days prior to and 4 days with 5-FU 75 mg/kg i.p. daily) is “prevented 5-FU-induced small intestine atrophy; also recorded: dose-dependently prevented 5-FU induced small intestinal atrophy and maintained SI-BW and SI length at levels similar to the controls”. For the same substance, the “Incidence and severity of diarrhea” value in experiment [1] (highest dose (400 nmol/kg), rats administered 5-FU) is “decreased the incidence and severity of diarrhea”.
Consider “[Gly2, Glu3, Thr5, Ser8, Leu10, Ala11,16,24,28]hGLP-2(1-33)-(Lys)6-NH2 (HGEGTFSSELATILDALAARDFIAWLIATKITDKKKKKK-NH2) [Compound 1848]”, for which the “Tissue levels of TNF-α, proximal segment” value came to 45±14 pg/mg protein in experiment [2] (8 nmol/kg), 44±9 pg/mg protein in experiment [2] (40 nmol/kg) and 45±7 pg/mg protein in experiment [2] (200 nmol/kg). In addition, in experiment [2] (8, 40 or 200 nmol/kg, indomethacin-treated rats), the “Small intestinal tissue levels of TNF-α (in words)” value is on record as “significantly decreased small intestinal tissue levels of the proinflammatory cytokine TNF-α”. Further, the “Tissue levels of TNF-α, mid segment (in words)” value in experiment [2] (40 or 200 nmol/kg, indomethacin alone 108±9 pg/mg protein) is “significantly reduced tissue levels of TNF-α”. In addition, in experiment [2] (indomethacin alone 75±5 pg/mg protein), the “TNF-α levels, distal segment (in words)” value is “inhibitory effect on TNF-α levels in the distal segment but the effect was less pronounced compared to the other segments”. Also, the “TNF-α: efficacy compared with prednisolone” value in experiment [2] (vs prednisolone 10 mg/kg) was “more efficacious than prednisolone in the proximal and mid segments”.
